Patent US20090215778A1, “Alpha-substituted Arylmethyl Piperazine Pyrazolo [1,5-alpha]Pyrimidine Amide Derivatives” (priority 2007, published 2009)

Key:
[1] = molecular target: T1, HIV Env six-helix bundle (6HB) structure (Human immunodeficiency virus type 1 group M subtype B, UniProt P04579); experiment: Six-helix bundle (6HB) assay; type: cell-based, HIV-1 (strain RF)
T1 construct: H9 cells chronically infected with HIV-1 (H9/HIV-1RF); endogenous in cells; host or cells: H9 cells chronically infected with HIV-1 strain RF (Env is made from the virus in the infected cells, not by transfection)
How it was run: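 Flow cytometry measured binding of a six-helix-bundle-specific polyclonal antibody, detected with PE-labelled secondary at 4 °C for 45 min, on H9/HIV-1 RF chronically infected cells. Compound was given 30 min at 37 °C before 1 μg/mL soluble CD4 induction for 1 h. Inhibition appears as reduced fluorescence.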

[2] = system: HIV-1, NL4-3 strain; experiment: Virus infection assay (virus entry and single-cycle infection); type: cell-based; details: Human immunodeficiency virus 1, NL43, TZM-b1, read-out: Nl4
How it was run: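 Single-cycle entry/infection read-out: β-galactosidase chemiluminescence measured one day after infection. Compounds were present during a 4 h, 37 °C exposure of TZM-b1 reporter cells to NL4-3 virus at MOI 0.01 plus DEAE-dextran (80 μg/mL final), followed by addition of complete medium.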

T1 sequence (P04579 32-519): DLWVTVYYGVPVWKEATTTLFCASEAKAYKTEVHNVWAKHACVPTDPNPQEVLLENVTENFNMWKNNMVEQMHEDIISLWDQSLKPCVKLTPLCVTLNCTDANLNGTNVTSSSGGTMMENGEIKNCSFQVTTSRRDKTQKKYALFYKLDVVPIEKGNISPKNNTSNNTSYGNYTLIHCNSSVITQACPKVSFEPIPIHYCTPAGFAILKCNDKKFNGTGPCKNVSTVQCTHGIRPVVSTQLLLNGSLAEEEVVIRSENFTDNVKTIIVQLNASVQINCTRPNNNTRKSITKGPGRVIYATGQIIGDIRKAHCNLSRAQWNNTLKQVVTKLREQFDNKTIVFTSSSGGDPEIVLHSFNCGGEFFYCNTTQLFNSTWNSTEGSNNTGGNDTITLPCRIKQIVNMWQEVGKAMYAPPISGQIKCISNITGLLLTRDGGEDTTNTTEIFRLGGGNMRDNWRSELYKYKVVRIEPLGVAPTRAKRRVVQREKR
T1 sequence (P04579 520-865): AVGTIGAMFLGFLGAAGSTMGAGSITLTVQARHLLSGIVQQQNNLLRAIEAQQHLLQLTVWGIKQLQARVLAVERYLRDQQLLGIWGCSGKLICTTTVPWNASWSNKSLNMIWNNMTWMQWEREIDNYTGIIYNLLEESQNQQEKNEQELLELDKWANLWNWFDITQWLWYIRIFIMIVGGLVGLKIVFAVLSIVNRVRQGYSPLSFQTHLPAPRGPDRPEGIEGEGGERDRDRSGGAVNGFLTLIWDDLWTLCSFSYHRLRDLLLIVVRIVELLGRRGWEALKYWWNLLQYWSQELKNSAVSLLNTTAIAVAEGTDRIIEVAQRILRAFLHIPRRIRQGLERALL

CCOc1ccc(C(CO)N2CCN(C(=O)c3cnn4c(C(F)(F)F)c(C)c(-c5ccc(OC)cc5)nc34)[C@H](C)C2)cn1 (stereo partly drawn) [methanone, [(2R)-4-[1-(6-ethoxy-3-pyridinyl)-2-hydroxyethyl]-2-methyl-1-piperazinyl][5-(4-methoxyphenyl)-6-methyl-7-(trifluoromethyl)pyrazolo[1,5-α]pyrimidin-3-yl]-]
IC50 [1]: < 1 µM | IC50 [2]: < 1 µM

COc1ccc(-c2nc3c(C(=O)N4CCN(C(CO)c5cnccc5OC)C[C@H]4C)cnn3c(C(F)(F)F)c2C)cc1 (stereo partly drawn) [methanone, [(2R)-4-[2-hydroxy-1-(4-methoxy-3-pyridinyl)ethyl]-2-methyl-1-piperazinyl][5-(4-methoxyphenyl)-6-methyl-7-(trifluoromethyl)pyrazolo[1,5-α]pyrimidin-3-yl]-]
IC50 [1]: < 1 µM | IC50 [2]: < 1 µM

COc1ccc(-c2nc3c(C(=O)N4CCN(C(CO)c5c(F)ccc(OC)c5F)C[C@H]4C)cnn3c(C(F)(F)F)c2C)cc1 (stereo partly drawn) [methanone, [(2R)-4-[1-(2,6-difluoro-3-methoxyphenyl)-2-hydroxyethyl]-2-methyl-1-piperazinyl][5-(4-methoxyphenyl)-6-methyl-7-(trifluoromethyl)pyrazolo[1,5-α]pyrimidin-3-yl]-]
IC50 [1]: < 1 µM | IC50 [2]: < 1 µM

COc1ccc(-c2nc3c(C(=O)N4CCN([C@@H](C)c5cccnc5)C[C@H]4C)cnn3c(C(F)(F)F)c2C)cc1 [methanone, [5-(4-methoxyphenyl)-6-methyl-7-(trifluoromethyl)pyrazolo[1,5-α]pyrimidin-3-yl][(2R)-2-methyl-4-[(1S)-1-(3-pyridinyl)ethyl]-1-piperazinyl]-]
IC50 [1]: < 1 µM | IC50 [2]: < 1 µM

COc1ccc(-c2nc3c(C(=O)N4CCN([C@@H](C)c5ccc(S(C)(=O)=O)cc5)C[C@H]4C)cnn3c(C(F)(F)F)c2C)cc1 [methanone, [5-(4-methoxyphenyl)-6-methyl-7-(trifluoromethyl)pyrazolo[1,5-α]pyrimidin-3-yl][(2R)-2-methyl-4-[(1S)-1-[4-(methylsulfonyl)phenyl]ethyl]-1-piperazinyl]-]
IC50 [1]: 1.1 to 10 µM | IC50 [2]: 1.1 to 10 µM

COC[C@@H](c1ccccc1)N1CCN(C(=O)c2cnn3c(C(F)(F)F)c(C)c(-c4ccc(OC)cc4)nc23)[C@H](C)C1 [methanone, [(2R)-4-[(1R)-2-methoxy-1-phenylethyl]-2-methyl-1-piperazinyl][5-(4-methoxyphenyl)-6-methyl-7-(trifluoromethyl)pyrazolo[1,5-α]pyrimidin-3-yl]-]
IC50 [1]: < 1 µM | IC50 [2]: < 1 µM

COc1ccc(-c2nc3c(C(=O)N4CCN(C(CO)c5cn[nH]c5)C[C@H]4C)cnn3c(C(F)(F)F)c2C)cc1 (stereo partly drawn) [methanone, [(2R)-4-[2-hydroxy-1-(1H-pyrazol-4-yl)ethyl]-2-methyl-1-piperazinyl][5-(4-methoxyphenyl)-6-methyl-7-(trifluoromethyl)pyrazolo[1,5-α]pyrimidin-3-yl]-]
IC50 [1]: 1.1 to 10 µM | IC50 [2]: 1.1 to 10 µM

COc1ccc(-c2nc3c(C(=O)N4CCN([C@@H](C)c5ccco5)C[C@H]4C)cnn3c(C(F)(F)F)c2C)cc1 [methanone, [(2R)-4-[(1S)-1-(2-furanyl)ethyl]-2-methyl-1-piperazinyl][5-(4-methoxyphenyl)-6-methyl-7-(trifluoromethyl)pyrazolo[1,5-α]pyrimidin-3-yl]-]
IC50 [1]: < 1 µM | IC50 [2]: < 1 µM

COc1ccc(-c2nc3c(C(=O)N4CCN(C(CO)c5cccc(N)c5)C[C@H]4C)cnn3c(C(F)(F)F)c2C)cc1 (stereo partly drawn) [methanone, [(2R)-4-[1-(3-aminophenyl)-2-hydroxyethyl]-2-methyl-1-piperazinyl][5-(4-methoxyphenyl)-6-methyl-7-(trifluoromethyl)pyrazolo[1,5-α]pyrimidin-3-yl]-]
IC50 [1]: < 1 µM | IC50 [2]: < 1 µM

COc1ccc(-c2nc3c(C(=O)N4CCN(C(CO)c5ccccc5NC(=O)C(C)C)C[C@H]4C)cnn3c(C(F)(F)F)c2C)cc1 (stereo partly drawn) [propanamide, N-[2-[2-hydroxy-1-[(3R)-4-[[5-(4-methoxyphenyl)-6-methyl-7-(trifluoromethyl)pyrazolo[1,5-α]pyrimidin-3-yl]carbonyl]-3-methyl-1-piperazinyl]ethyl]phenyl]-2-methyl-]
IC50 [1]: > 10.1 µM | IC50 [2]: > 10.1 µM

COc1ccc(-c2nc3c(C(=O)N4CCN(C(CO)c5cccc(N(C)C)c5)C[C@H]4C)cnn3c(C(F)(F)F)c2C)cc1 (stereo partly drawn) [methanone, [(2R)-4-[1-[3-(dimethylamino)phenyl]-2-hydroxyethyl]-2-methyl-1-piperazinyl][5-(4-methoxyphenyl)-6-methyl-7-(trifluoromethyl)pyrazolo[1,5-α]pyrimidin-3-yl]-]
IC50 [1]: < 1 µM | IC50 [2]: < 1 µM

CCOc1ccccc1C(CO)N1CCN(C(=O)c2cnn3c(C(F)(F)F)c(C)c(-c4ccc(OC)cc4)nc23)[C@H](C)C1 (stereo partly drawn) [methanone, [(2R)-4-[1-(2-ethoxyphenyl)-2-hydroxyethyl]-2-methyl-1-piperazinyl][5-(4-methoxyphenyl)-6-methyl-7-(trifluoromethyl)pyrazolo[1,5-α]pyrimidin-3-yl]-]
IC50 [1]: < 1 µM | IC50 [2]: < 1 µM

COc1ccc(-c2nc3c(C(=O)N4CCN([C@@H](CO)c5ccccc5F)C[C@H]4C)cnn3c(C(F)(F)F)c2C)cc1 [methanone, [(2R)-4-[(1R)-1-(2-fluorophenyl)-2-hydroxyethyl]-2-methyl-1-piperazinyl][5-(4-methoxyphenyl)-6-methyl-7-(trifluoromethyl)pyrazolo[1,5-α]pyrimidin-3-yl]-]
IC50 [1]: < 1 µM | IC50 [2]: < 1 µM

COc1ccc(-c2nc3c(C(=O)N4CCN([C@H](CO)c5cc(C)cs5)C[C@H]4C)cnn3c(C(F)(F)F)c2C)cc1 [methanone, [(2R)-4-[(1R)-2-hydroxy-1-(4-methyl-2-thienyl)ethyl]-2-methyl-1-piperazinyl][5-(4-methoxyphenyl)-6-methyl-7-(trifluoromethyl)pyrazolo[1,5-α]pyrimidin-3-yl]-]
IC50 [1]: < 1 µM | IC50 [2]: < 1 µM

COc1ccc(-c2nc3c(C(=O)N4CCN(C(CO)c5cccc(OC)c5OC)C[C@H]4C)cnn3c(C(F)(F)F)c2C)cc1 (stereo partly drawn) [methanone, [(2R)-4-[1-(2,3-dimethoxyphenyl)-2-hydroxyethyl]-2-methyl-1-piperazinyl][5-(4-methoxyphenyl)-6-methyl-7-(trifluoromethyl)pyrazolo[1,5-α]pyrimidin-3-yl]-]
IC50 [1]: < 1 µM | IC50 [2]: < 1 µM

Cc1c(-c2ccc(C3CC3)cc2)nc2c(C(=O)N3CCN([C@@H](CO)c4ccccc4)C[C@H]3C)cnn2c1C(F)(F)F [methanone, [5-(4-cyclopropylphenyl)-6-methyl-7-(trifluoromethyl)pyrazolo[1,5-α]pyrimidin-3-yl][(2R)-4-[(1R)-2-hydroxy-1-phenylethyl]-2-methyl-1-piperazinyl]-]
IC50 [1]: < 1 µM | IC50 [2]: < 1 µM

COc1ccc(-c2nc3c(C(=O)N4CCN([C@@H](C)c5oc(C)nc5C)C[C@H]4C)cnn3c(C(F)(F)F)c2C)cc1 [methanone, [(2R)-4-[(1S)-1-(2,4-dimethyl-5-oxazolyl)ethyl]-2-methyl-1-piperazinyl][5-(4-methoxyphenyl)-6-methyl-7-(trifluoromethyl)pyrazolo[1,5-α]pyrimidin-3-yl]-]
IC50 [1]: 1.1 to 10 µM | IC50 [2]: 1.1 to 10 µM

COc1ccc(-c2nc3c(C(=O)N4CCN(C(CO)c5ccccc5F)C[C@H]4C)cnn3c(C(F)(F)F)c2C)cn1 (stereo partly drawn) [methanone, [(2R)-4-[1-(2-fluorophenyl)-2-hydroxyethyl]-2-methyl-1-piperazinyl][5-(6-methoxy-3-pyridinyl)-6-methyl-7-(trifluoromethyl)pyrazolo[1,5-α]pyrimidin-3-yl]-]
IC50 [1]: < 1 µM | IC50 [2]: < 1 µM

COc1ccc(-c2nc3c(C(=O)N4CCN(C(c5ccccc5)C(C)O)C[C@H]4C)cnn3c(C(F)(F)F)c2C)cc1 (stereo partly drawn) [methanone, [(2R)-4-(2-hydroxy-1-phenylpropyl)-2-methyl-1-piperazinyl][5-(4-methoxyphenyl)-6-methyl-7-(trifluoromethyl)pyrazolo[1,5-α]pyrimidin-3-yl]-]
IC50 [1]: < 1 µM | IC50 [2]: < 1 µM

COc1ccc(-c2nc3c(C(=O)N4CCN(C(CO)c5ccc(Cl)s5)C[C@H]4C)cnn3c(C(F)(F)F)c2C)cc1 (stereo partly drawn) [methanone, [(2R)-4-[1-(5-chloro-2-thienyl)-2-hydroxyethyl]-2-methyl-1-piperazinyl][5-(4-methoxyphenyl)-6-methyl-7-(trifluoromethyl)pyrazolo[1,5-α]pyrimidin-3-yl]-]
IC50 [1]: < 1 µM | IC50 [2]: < 1 µM

COc1ccc(-c2nc3c(C(=O)N4CCN(C(CO)c5cc(C(C)=O)ccc5F)C[C@H]4C)cnn3c(C(F)(F)F)c2C)cc1 (stereo partly drawn) [ethanone, 1-[4-fluoro-3-[2-hydroxy-1-[(3R)-4-[[5-(4-methoxyphenyl)-6-methyl-7-(trifluoromethyl)pyrazolo[1,5-α]pyrimidin-3-yl]carbonyl]-3-methyl-1-piperazinyl]ethyl]phenyl]-]
IC50 [1]: < 1 µM | IC50 [2]: < 1 µM

COc1ccc(-c2nc3c(C(=O)N4CCN(C(C(N)=O)c5ccccc5)C[C@H]4C)cnn3c(C(F)(F)F)c2C)cc1 (stereo partly drawn) [1-piperazineacetamide, 4-[[5-(4-methoxyphenyl)-6-methyl-7-(trifluoromethyl)pyrazolo[1,5-α]pyrimidin-3-yl]carbonyl]-3-methyl-α-phenyl-, (3R)-]
IC50 [1]: < 1 µM | IC50 [2]: < 1 µM

COc1ccc(-c2nc3c(C(=O)N4CCN([C@H](C)c5ccc(F)cc5)C[C@H]4C)cnn3c(C(F)(F)F)c2C)cc1 [methanone, [(2R)-4-[(1R)-1-(4-fluorophenyl)ethyl]-2-methyl-1-piperazinyl][5-(4-methoxyphenyl)-6-methyl-7-(trifluoromethyl)pyrazolo[1,5-α]pyrimidin-3-yl]-]
IC50 [1]: < 1 µM | IC50 [2]: < 1 µM
